According to ChEMBL document CHEMBL1201862, “PubChem BioAssay data set” (2004):
The source made the active and inactive calls.

Tests used:
[1] = HIV-1 AD8 envelope cell-cell fusion blockers – cherry-pick, dose response (AID 652062); assay type: functional, cell-based;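 further: luciferase signal from cell-cell fusion driven by HIV-1 clade B AD8 Env; potency is for inhibitors of fusion seen as a drop in luminescence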
[2] = blockers of HIV-1 envelope-mediated cell-cell fusion – cherry-pick, dose response (AID 652057); assay type: functional, cell-based
HEK293 = assay: viability loss in HEK293T cells – cell-based, ATP luminescence, cherry-pick samples, cytotoxicity control, dose response (AID 687005); assay type: functional; conditions: Homo sapiens;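 further: cells exposed to compound for 48 hours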
HepG2 = assay: viability loss in HepG2 hepatoma cells – cell-based, cherry-picks, set 2, cytotoxicity control, dose response (AID 687002); assay type: functional; conditions: Homo sapiens
[3] = HEK293 Cytotoxicity Assay Measured in Cell-Based System Using Plate Reader - 7071-01_Inhibitor_Dose_CherryPick_Activity_Set2.; assay type: functional
HeLa = assay: viability loss in HeLa cells – cell-based, ATP luminescence, cherry-pick samples, cytotoxicity control, dose response (AID 687004); assay type: functional; conditions: Homo sapiens
[4] = molecular target: Metabotropic glutamate receptor 3 (Rattus norvegicus, UniProt P31422); assay: inhibitors of rat mGlu3 Galpha15 signaling – TREx293 cells, calcium flux, mGlu3 NAM project, dose response (AID 651840); assay type: functional
[5] = human cervical cancer cell viability loss – 24 h, plate reader, dry powder, cytotoxicity control, dose response (AID 686928); assay type: functional, cell-based; conditions: HeLa
Mu-type opioid receptor = Mu-type opioid receptor (Homo sapiens, UniProt P35372); assay: Late-stage results from the probe development effort to identify antagonists of OPRK1: luminescence-based cell-based dose response OPRM1 counterscreen.; assay type: functional
[6] = molecular target: Delta-type opioid receptor (Homo sapiens, UniProt P41143); assay: Late-stage results from the probe development effort to identify antagonists of OPRK1: fluorescence-based cell-based dose response OPRD1 counterscreen.; assay type: functional
[7] = molecular target: Potassium channel subfamily K member 3 (Homo sapiens, UniProt O14649); assay: inhibition of human KCNK3 channel flux – CHO cells, FluxOR thallium flux, SAR follow-up (AID 652212); assay type: functional
[8] = molecular target: Potassium channel subfamily K member 3 (Rattus norvegicus, UniProt O54912); assay: SAR analysis for the identification of selective inhibitors of the two-pore domain potassium channel TASK1(KCNK3):Automated Electrophysiology.; assay type: functional
[9] = molecular target: Potassium channel subfamily K member 9 (Homo sapiens, UniProt Q9NPC2); assay: KCNK9 flux blockade, concentration-response – cell-based, FluxOR thallium flux, selectivity assay for TASK1 inhibitor project, SAR follow-up (AID 652211); assay type: functional;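 further: potency is for inhibitors of the channel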
[10] = T. cruzi growth inhibition in host cells, dose response, cell-based, plate reader, dry powder, set 2 (AID 652275); assay type: functional
[11] = A Cell-Based Confirmatory Screen for Compounds that Inhibit VEEV, TC-83 (7).; assay type: functional
[12] = Counterscreen for antagonists of the human trace amine associated receptor 1 (hTAAR1): Fluorescence-based cell-based high throughput dose response assay to identify nonselective Ga16 antagonists.; assay type: functional
[13] = molecular target: T1, Trace amine-associated receptor 1 (Homo sapiens, UniProt Q96RJ0); assay: Counterscreen for antagonists of the human trace amine associated receptor 1 (hTAAR1): Fluorescence-based cell-based high throughput dose response assay to identify TAAR1 Agonists.; assay type: functional
T1 sequence (Q96RJ0 whole entry): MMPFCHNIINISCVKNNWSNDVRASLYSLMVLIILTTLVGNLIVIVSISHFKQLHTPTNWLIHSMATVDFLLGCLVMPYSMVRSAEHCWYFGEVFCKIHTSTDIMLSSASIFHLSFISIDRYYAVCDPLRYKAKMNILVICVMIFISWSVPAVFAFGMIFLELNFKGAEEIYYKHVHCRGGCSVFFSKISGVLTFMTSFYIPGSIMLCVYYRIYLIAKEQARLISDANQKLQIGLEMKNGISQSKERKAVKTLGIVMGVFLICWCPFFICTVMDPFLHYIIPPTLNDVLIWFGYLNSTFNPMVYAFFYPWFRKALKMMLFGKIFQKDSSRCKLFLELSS

[14] = molecular target: T1, Trace amine-associated receptor 1; assay: Fluorescence-based cell-based high throughput dose response assay to identify antagonists of the human trace amine associated receptor 1 (TAAR1).; assay type: functional
[15] = Counterscreen for […] of the human trace amine associated receptor 1 (TAAR1): Fluorescence-based cell-based high throughput dose response assay to identify nonselective Ga16 agonists.; assay type: functional

Sequence of Potassium channel subfamily K member 9 (Q9NPC2 whole entry): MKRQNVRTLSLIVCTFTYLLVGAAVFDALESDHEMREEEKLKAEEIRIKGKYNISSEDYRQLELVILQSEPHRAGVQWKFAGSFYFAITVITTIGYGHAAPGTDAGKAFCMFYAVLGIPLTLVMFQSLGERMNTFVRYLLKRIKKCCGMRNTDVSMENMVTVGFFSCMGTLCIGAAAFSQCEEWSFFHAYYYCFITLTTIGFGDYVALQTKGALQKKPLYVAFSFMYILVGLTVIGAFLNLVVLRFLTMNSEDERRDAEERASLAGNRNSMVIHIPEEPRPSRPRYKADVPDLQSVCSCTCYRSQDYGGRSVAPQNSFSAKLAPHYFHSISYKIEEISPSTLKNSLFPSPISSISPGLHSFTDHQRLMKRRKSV
Sequence of Metabotropic glutamate receptor 3 (P31422 whole entry): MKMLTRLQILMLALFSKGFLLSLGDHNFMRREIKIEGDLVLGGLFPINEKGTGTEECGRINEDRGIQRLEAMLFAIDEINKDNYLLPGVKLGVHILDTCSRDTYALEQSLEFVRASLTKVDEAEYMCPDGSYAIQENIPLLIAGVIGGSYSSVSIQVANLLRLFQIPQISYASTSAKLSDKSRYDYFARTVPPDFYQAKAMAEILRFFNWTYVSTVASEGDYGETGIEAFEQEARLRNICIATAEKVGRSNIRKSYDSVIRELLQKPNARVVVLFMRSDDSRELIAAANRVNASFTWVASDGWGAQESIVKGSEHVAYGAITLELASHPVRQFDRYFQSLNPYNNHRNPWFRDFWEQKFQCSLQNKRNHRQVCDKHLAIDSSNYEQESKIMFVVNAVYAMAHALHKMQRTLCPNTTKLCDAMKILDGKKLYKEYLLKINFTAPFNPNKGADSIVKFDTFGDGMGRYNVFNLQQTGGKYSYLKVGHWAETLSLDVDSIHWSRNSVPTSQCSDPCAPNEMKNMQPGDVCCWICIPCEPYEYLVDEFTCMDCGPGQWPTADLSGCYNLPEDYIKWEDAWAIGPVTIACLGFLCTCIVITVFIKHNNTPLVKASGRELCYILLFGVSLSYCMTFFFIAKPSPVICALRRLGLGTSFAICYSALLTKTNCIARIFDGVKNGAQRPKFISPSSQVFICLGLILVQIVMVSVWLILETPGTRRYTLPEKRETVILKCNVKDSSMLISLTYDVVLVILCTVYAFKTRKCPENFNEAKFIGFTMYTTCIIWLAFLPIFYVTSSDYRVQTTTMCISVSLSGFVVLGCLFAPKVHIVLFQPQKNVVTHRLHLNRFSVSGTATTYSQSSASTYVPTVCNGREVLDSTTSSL
Sequence of Potassium channel subfamily K member 3 (Homo sapiens, UniProt O14649) (O14649 whole entry, the tested form may be a part): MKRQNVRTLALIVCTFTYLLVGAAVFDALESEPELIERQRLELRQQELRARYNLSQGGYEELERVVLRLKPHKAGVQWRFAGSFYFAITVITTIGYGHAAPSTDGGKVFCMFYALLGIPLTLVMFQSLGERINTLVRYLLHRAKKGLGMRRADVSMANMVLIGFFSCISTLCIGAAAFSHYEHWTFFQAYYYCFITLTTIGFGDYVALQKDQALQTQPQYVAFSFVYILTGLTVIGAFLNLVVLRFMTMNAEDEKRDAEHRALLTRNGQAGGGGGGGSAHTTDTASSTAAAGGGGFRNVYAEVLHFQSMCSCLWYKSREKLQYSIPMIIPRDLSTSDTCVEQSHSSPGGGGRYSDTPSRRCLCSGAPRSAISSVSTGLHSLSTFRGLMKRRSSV
Sequence of Delta-type opioid receptor (P41143 whole entry): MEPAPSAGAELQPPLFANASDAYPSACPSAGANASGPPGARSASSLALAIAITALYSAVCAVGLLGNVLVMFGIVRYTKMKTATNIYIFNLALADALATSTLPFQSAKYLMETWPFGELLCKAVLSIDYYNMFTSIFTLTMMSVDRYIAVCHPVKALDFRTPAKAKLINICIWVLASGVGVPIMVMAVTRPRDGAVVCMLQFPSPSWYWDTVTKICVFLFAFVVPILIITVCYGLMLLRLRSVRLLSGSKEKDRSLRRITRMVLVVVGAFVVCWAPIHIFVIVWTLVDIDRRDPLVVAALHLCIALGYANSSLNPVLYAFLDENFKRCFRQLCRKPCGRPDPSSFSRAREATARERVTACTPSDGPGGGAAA
Sequence of Mu-type opioid receptor (P35372 whole entry): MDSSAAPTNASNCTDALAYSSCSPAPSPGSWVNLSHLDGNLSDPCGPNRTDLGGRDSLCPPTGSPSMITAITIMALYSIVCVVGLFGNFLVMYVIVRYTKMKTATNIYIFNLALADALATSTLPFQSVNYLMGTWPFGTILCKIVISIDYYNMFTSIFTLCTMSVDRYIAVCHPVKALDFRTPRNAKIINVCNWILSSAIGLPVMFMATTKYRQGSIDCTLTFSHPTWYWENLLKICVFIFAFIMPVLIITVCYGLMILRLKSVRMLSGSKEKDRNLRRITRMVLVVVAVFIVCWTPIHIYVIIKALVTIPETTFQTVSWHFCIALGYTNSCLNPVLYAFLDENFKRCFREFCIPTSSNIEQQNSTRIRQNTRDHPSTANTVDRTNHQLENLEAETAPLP
Sequence of Potassium channel subfamily K member 3 (Rattus norvegicus, UniProt O54912) (O54912 whole entry, the tested form may be a part): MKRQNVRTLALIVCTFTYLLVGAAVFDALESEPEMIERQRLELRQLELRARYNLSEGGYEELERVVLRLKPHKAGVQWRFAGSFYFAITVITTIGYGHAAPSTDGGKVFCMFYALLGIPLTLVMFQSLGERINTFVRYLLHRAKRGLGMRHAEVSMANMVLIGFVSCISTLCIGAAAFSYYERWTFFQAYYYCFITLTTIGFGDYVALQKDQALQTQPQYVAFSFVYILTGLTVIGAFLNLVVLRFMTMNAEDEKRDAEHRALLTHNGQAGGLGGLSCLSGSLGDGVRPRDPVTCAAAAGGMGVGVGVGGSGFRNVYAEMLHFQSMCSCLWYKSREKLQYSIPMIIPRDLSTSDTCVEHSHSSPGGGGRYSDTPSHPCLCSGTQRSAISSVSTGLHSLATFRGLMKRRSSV

For C[C@H](CO)N1C[C@H](C)[C@H](CN(C)Cc2ccccc2F)Oc2cc(C3=CCCC3)ccc2S1(=O)=O, the AC50 [1] was 24.4 µM (active), the AC50 [2] was 22.8 µM (active) and the AC50 (HEK293) was 18.8 µM (active). For the same compound, the AC50 (HepG2) was 19.4 µM (active) and the AC50 [3] was 18.8 µM (active).
With Cc1noc(C)c1NC(=O)Nc1ccc2c(c1)C(=O)N(C)[C@@H]1CC[C@H](CC(=O)N[C@H]3CCN(Cc4ccccc4)C3)O[C@@H]1CO2 the AC50 (HeLa) was > 47 µM (inactive), the AC50 (HEK293) was 29.7 µM (active) and the AC50 [3] was 29.7 µM (active).
For COc1ccc(C#Cc2ccc(C(=O)N3CCCC(O)(Cc4ccccc4)C3)cc2)cc1 (stereo unspecified), the IC50 [4] was 8.87 µM (active).
With O=C(Nc1nnc(-c2ccc3c(c2)OCCO3)o1)C(F)(F)c1ccccc1 the AC50 [5] was > 200 µM (inactive).
For COC(=O)c1cc(Br)cnc1N1CCC(NC2CCCCC2)C1 (stereo unspecified), the IC50 (Mu-type opioid receptor) was 20 µM (inactive) and the IC50 [6] was > 50 µM (inactive).
With CCOc1ccccc1NC(=O)c1cccc(NC(=O)c2cccc(Cl)c2)c1 the IC50 [7] was 39 nM (active), the IC50 [8] was 2.86 µM (active) and the IC50 [9] was 1.84 µM (active).
In the case of O=C(CN1CCOCC1)N1CCCCN2[C@@H](CO)[C@H](c3ccc(Br)cc3)[C@@H]2C1, the AC50 [10] is reported as 7.96 µM (active).
In the case of CN1CCN(C)/C(=N/c2ccc(C#N)cc2C(=O)Nc2ccccc2)C1, the IC50 [11] is reported as 380 nM (active).
With Cc1ccc(/C=N/NC(=O)c2ccccc2OCc2cccc(Br)c2)o1 the IC50 [12] was > 29.9 µM (inactive), the EC50 [13] was > 29.9 µM (inactive) and the IC50 [14] was 3.69 µM (active). For the same compound, the EC50 [15] was > 29.9 µM (inactive).
